{"source": "patent US10568320B2", "about": "“Biologically-based control methods for insect pests” (The United States of America, as represented by the …, priority 2017, dated 2020)", "key": {"[1]": {"system": "monogyne queenright colonies", "test": "Feeding of monogyne queenright colonies: worker and queen mortality", "type": "in vivo, Solenopsis invicta", "conditions": "1% in 10% sucrose, 27 d", "text": "FIGS. 24A and 24B show results for the sucrose (10%) control and two treatments, tyramine (1%) and N-methyl-tyramine (1%), both dissolved in 10% sucrose. The control and test colonies were monogyne queenright colonies, containing a single queen, brood and workers started in the laboratory from newly mated queens collected in the field. The mean number of workers per colony was 8,400±400. […] Previous experiments used queenless sub-colonies, rather than the queenright colonies in these experiments. The mortality effect on colony queens was unexpected, since worker fire ants are completely sterile and cannot reproduce even if the queen dies. Therefore, when the reproductive queen dies no more brood is produced and the colony is no longer functional—it is considered dead. […] Therefore, 80% of the treated colonies were considered dead."}, "female sexuals (alates)": {"system": "female sexuals (alates)", "test": "Worker attraction to poison sac extracts of dealates (queen pheromone bioassay)", "type": "in vivo, Solenopsis invicta", "conditions": "extracts from dealates of fed sub-colonies"}, "4th instar sexual larvae": {"system": "4th instar sexual larvae", "test": "Direct (hand) feeding of 4th instar sexual larvae", "type": "in vivo, Solenopsis invicta", "text": "It was concluded that the 4th instar larvae are refractory to the mortality effects observed when workers are fed tyramine."}, "fire ant workers [2]": {"system": "fire ant workers", "test": "Droplet feeding of worker groups: mortality over 24 h and concentration series", "type": "in vivo", "description": "To determine how quickly the tyramine and acetyl tyramide act, 60 workers were allowed to feed on tyramine (FIG. 8A) or acetyl tyramide (FIG. 8B) dissolved at about 1% in 10% sucrose solution. The control and treatments were presented to the worker ants as droplets on phase separation filter paper. Consumption of the droplets was readily observed. Mortality was monitored for each of the first 10 hours and then at 24 hours. […] Tyramine and acetyl tyramide had >50% and >40% mortality, respectively within the 24 h time period of the experiment. […] This distribution is a cornerstone of pest ant baits. To test this hypothesis, a similar experiment was conducted. Workers were allowed to feed on the treatment and control solutions and were then transferred to another container with unfed nestmates. In all cases, it was observed that the treatment fed workers regurgitated the treatment and sucrose solutions to their unfed nestmates through the classic mechanism of trophallaxis (data not shown). Thus, normal worker behavior necessary for bait development was not affected by the treatments under these experimental conditions.\nOne criteria for an effective pest ant Active Ingredient (AI) is maintenance of activity over 1-3 orders of magnitude, because as the bait is distributed from one ant to another the material is diluted. The AI must maintain activity until all individuals in the colony (e.g., workers, brood and sexuals including the queen) have received the AI. […] Journal of Economic Entomology 99(5): 1739-1748). The 0.01% had >24 h delay in mortality."}, "[3]": {"system": "female alates and workers", "test": "Feeding of queenless colony sub-units with immature female alates", "type": "in vivo, Solenopsis invicta", "text": "In this example, whether feeding tyramine and/or the tyramides to colony sub-units that contained female […] would result in inappropriate wing loss, as well as ovariole development. Wing muscle histolysis, and queen pheromone production normally accompanies wing loss (see Vargo, E. L. (1998), Primer pheromones in ants, pp. 293-313. In […]. Breed, […] and M. L. Winston (eds.), Pheromone communication in social insects ants, wasps, bees, and termites. […], Boulder, Colo.). […] The data supports and confirms that workers are feeding the treatments to the female […], which in turn stimulates wing loss in the […]. FIG. 11B is from the same experiment confirming the worker mortality effects of the tyramine and tyramide treatments."}, "[4]": {"system": "Tawny crazy ant (Nylanderia fulva) workers", "test": "Species specificity droplet feeding: tawny crazy ant workers", "type": "in vivo", "conditions": "1% in 10% sucrose, 24 h", "text": "(§1) To evaluate the effect of tyramine on another pest ant species triplicate groups of 20 Tawny crazy ant (Nylanderia fulva) workers and triplicate groups of 20 fire ant workers were setup. Corresponding controls for both pest ant species were workers fed 10% sucrose solution. The treatment was 1% tyramine in 10% sucrose (weight-to-volume). The control and treatments were presented to the worker ants as droplets on phase separation filter paper. Consumption of the droplets was readily observed. Mortality was monitored for each of the first 10 hours and then at 24 hours. The results are shown as mean±standard error of accumulated mortality for controls and treatments at 24 h in FIG. 13. […] These unexpected results illustrate that the toxicity effects of tyramine on fire ants are not automatically extended to other ant species."}, "[5]": {"system": "mature female alates (MFAs)", "test": "Injection into MFA abdomen: wing loss (dealation)", "type": "in vivo, Solenopsis invicta", "conditions": "100 nL of a 1.0% saline solution injected into the MFA abdomen", "text": "While the MFAs are in their mother colony, the queen releases primer pheromones that inhibit wing loss (sometimes referred to herein as “dealation”), development of ovaries, wing muscle histolysis, and pheromone production. This release prevents reproductive/resource competition between the MFAs and the mother queen. If MFAs are removed from the colony, they become disinhibited and eventually (e.g., within days) lose their wings and start the physiological processes (e.g., wing loss and ovariole development). MFA also become disinhibited when they leave the colony on a mating flight; however, in this case the now NMQs lose their wings within minutes of landing and initiate the above mentioned physiological/biochemical changes (e.g., wing loss and ovariole development). We know from previous experiments that mating is the trigger, not mating flight initiation or the act of flying (Burns, S. N., et al. (2002) Identification and action of juvenile hormone III from sexually mature alate females of the red imported fire ant, Solenopsis invicta. Journal of Insect Physiology 48: 357-365; Burns, S. N., et al. (2005), The effect of age and social environment on dealation in Solenopsis invicta (Hymenoptera: Formicidae) female […]. […] Burns, S. N., et al. […]"}, "[6]": {"system": "mature female alates (MFAs)", "test": "Injection into MFA abdomen: ovariole development and egg-laying", "type": "in vivo, Solenopsis invicta", "conditions": "100 nL of a 1.0% saline solution (1 microgram) injected", "text": "Two measures of ovariole development were used. […] Measurement of ovariole area in the same samples gave a quantitative measure of ovariole development. […] Within the context of a colony this effect would be in direct conflict with the colony queen. Eggs laid would not be fertile and therefore develop into males. Queen pheromone is also produced by […], which would act to reduce the fecundity of the colony queen. For example, in polygyne colonies the higher the number of queens the lower is the mean egg-laying rate/queen due to the presence of excess queen pheromone (see Vander Meer, R. K., et al. (1992), A comparison of queen oviposition rates from monogyne and polygyne fire ant, Solenopsis invicta, colonies."}, "[7]": {"test": "Solubility in aqueous solution", "type": "physicochemical"}, "fire ant workers [8]": {"system": "fire ant workers", "test": "Example 14 feeding experiments: fire ant worker mortality"}, "fire ant workers [9]": {"system": "fire ant workers", "test": "Species specificity droplet feeding: fire ant workers", "type": "in vivo, Solenopsis invicta", "conditions": "1% in 10% sucrose, 24 h", "text": "as §1"}, "fire ant workers [10]": {"system": "fire ant workers", "test": "Five biogenic amines fed to fire ant workers as droplets", "type": "in vivo, Solenopsis invicta", "conditions": "1% in 10% sucrose, 48 h", "description": "Tyramine is one of five biogenic amines that may be found in insects (e.g., dopamine, histamine, octopamine, serotonin, and tyramine). The experiment in this example tests whether fire ant worker mortality effects observed with tyramine may be a general result of the ants ingesting greater than normal amounts of a biogenic amine. To test this hypothesis groups of 20 fire ant worker ants were starved for 24 hours and fed a 1% (w/v) biogenic amine in 10% sucrose solution. Treatments and sucrose were presented to the worker ants as a 25 microliter droplet on a 2 cm^2 piece of silicon treated filter paper. Each treatment and control were performed in triplicate for a total of 60 worker ants per treatment and control. Mortality was monitored for the first 7-8 h after introduction of the sucrose solutions, then at 24 h. The feeding/monitoring sequence was repeated for another 24 h period for a total of 48 h. The results are shown in FIG. 12A-12B in the form of Kaplan-Meier mortality curves."}}, "note": "“Also recorded” adds a separate entry of the source.", "data": [{"smiles": "NCCc1ccc(O)cc1", "note": "[tyramine]", "values": [{"measurement": "% worker mortality at the end of the experiment versus control", "setting": "[1]", "value": "significantly different from the corresponding controls"}, {"measurement": "fate of colony queens (five replicates)", "setting": "[1]", "value": "one colony queen survived out of five"}, {"measurement": "queen mortality at the end of the experiment versus control", "setting": "[1]", "value": "significantly different from the corresponding controls"}, {"measurement": "colonies considered dead", "setting": "[1]; five colonies", "value": 80, "unit": "%"}, {"measurement": "worker attraction to poison sac extracts versus N,N-dimethyl tyramine treatment and controls", "setting": "female sexuals (alates)", "value": "significantly different from those from the N,N-dimethyl tyramine treatment and the sucrose and hexane controls"}, {"measurement": "mortality / sickness of 4th instar sexual larvae", "setting": "4th instar sexual larvae; fed once, 80 nL max of about 1% w/v in 10% sucrose, N=10", "value": "All sexual larvae fed tyramine died by day 5"}, {"measurement": "amount fed at which fire ant sexual larvae die", "setting": "4th instar sexual larvae; in vivo", "value": 0.8, "unit": "micrograms"}, {"measurement": "delay in mortality", "setting": "fire ant workers [2]; 0.01% concentration", "value": "> 24", "unit": "h"}, {"measurement": "mortality delay", "setting": "fire ant workers [2]; 0.1% concentration", "value": "≥ 5", "unit": "h"}, {"measurement": "mortality delay", "setting": "fire ant workers [2]; 1.0% concentration", "value": "≥ 5", "unit": "h"}, {"measurement": "worker mortality at a dilution factor of 100", "setting": "fire ant workers [2]; about 0.01% (weight-to-volume)", "value": "significant worker mortality"}, {"measurement": "worker mortality compared with sucrose control (Kaplan-Meier, Log-rank)", "setting": "fire ant workers [2]; about 1% in 10% sucrose, 24 h", "value": "significantly greater worker mortality than the sucrose control"}, {"measurement": "worker mortality within the 24 h time period", "setting": "fire ant workers [2]; in vivo", "value": "> 50", "unit": "%"}, {"measurement": "wing loss of female alates", "setting": "[3]; fed in 10% sucrose continuously for 7 days, via workers", "value": "rapid wing loss"}, {"measurement": "ovariole development of female alates fed by workers", "setting": "[3]; sub-colonies", "value": "commencement of ovariole development"}, {"measurement": "accumulated worker mortality compared to sucrose control", "setting": "[4]", "value": "did not have significant mortality compared to its sucrose control; also recorded: no effect on crazy ant workers"}, {"measurement": "dealation (wing loss) compared to the control", "setting": "[5]", "value": "significantly faster and inappropriate dealation"}, {"measurement": "ovariole development, ovariole area, compared to controls", "setting": "[6]", "value": "caused significant ovariole development"}, {"measurement": "ovariole development, ovary rank 1-4, compared to the control", "setting": "[6]", "value": "significant ovariole development"}, {"measurement": "water solubility", "setting": "[7]", "value": "water soluble"}, {"measurement": "solubility maximum", "setting": "[7]; solution", "value": 1, "unit": "%"}, {"measurement": "fire ant worker mortality versus 10% sucrose control", "setting": "fire ant workers [8]; 0.01% in 10% sucrose", "value": "significantly different from the 10% sucrose control"}, {"measurement": "fire ant worker mortality versus 10% sucrose control", "setting": "fire ant workers [8]; 0.1% in 10% sucrose", "value": "significantly different from the 10% sucrose control"}, {"measurement": "fire ant worker mortality versus 10% sucrose control", "setting": "fire ant workers [8]; 1.0% in 10% sucrose", "value": "significantly different from the 10% sucrose control"}, {"measurement": "concentration of solution fed to workers that led to mortality after 7 days", "setting": "fire ant workers [8]; estimated from feeding studies", "value": 0.01, "unit": "micrograms per microliter"}, {"measurement": "accumulated worker mortality compared to sucrose control", "setting": "fire ant workers [9]", "value": "significant mortality compared to its sucrose control"}, {"measurement": "worker mortality, tyramine HCl versus tyramine free base", "setting": "fire ant workers [10]", "value": "not significantly different"}]}]}
